system: PC-12; assay: Neuroprotective activity against H2O2-induced cytotoxicity in rat PC-12 cells assessed as cell viability at 12.5 uM pretreated for 24 hrs followed by H2O2 challenge and measured after 24 hrs by MTT assay (reference value: 52.81 +/- 6%); type: functional; conditions: time 48 hrs, read-out: Activity

SMILES | viability at 12.5 µM [%]
O=C(/C=C/C=C/c1ccc(-c2ccccc2)cc1)N1CCCCC1 | 15.2
CCN(CC)C(=O)/C=C/c1ccc(N2CCNCC2)cc1 | 69.1
O=C(/C=C/c1ccc(N2CCCC2)cc1)N1CCCCC1 | 30.6
O=C(/C=C/C=C/c1cccs1)N1CCCCC1 | 57.9
CCNC(=O)/C=C/C=C/c1ccc2c(c1)OCO2 | 22.3
CCNC(=O)/C=C/c1cccs1 | 56.5
CCN(CC)C(=O)/C=C/C=C/c1ccccc1OC | 80.7
CCNC(=O)/C=C/c1ccc2c(c1)OCO2 | 69.7
CCNC(=O)/C=C/C=C/c1ccccc1OC | 74.6
O=C(/C=C/c1ccc2c(c1)OCO2)N1CCCCC1 [ILEPCIMIDE] | 77
CCN(CC)C(=O)/C=C/C=C/c1ccc2c(c1)OCO2 | 31.4
O=C(/C=C/C=C/c1ccco1)N1CCCCC1 | 33.3
O=C(/C=C/C=C/c1ccc(N2CCCC2)cc1)N1CCCCC1 | 37.2
CCN(CC)C(=O)/C=C/C=C/c1ccc(O)cc1 | 67.3
O=C(/C=C/C=C/c1cccc(O)c1)N1CCCCC1 | 75.7
CCNC(=O)/C=C/C=C/c1ccc(O)cc1 | 69.1
O=C(/C=C/C=C/c1ccc(O)cc1)N1CCCCC1 | 48.4

SMILES | viability at 12.5 µM [%]
CCN(CC)C(=O)/C=C/c1cccs1 | 54.3
COc1ccc(/C=C/C=C/C(=O)N2CCCCC2)cc1 | 26.5
CCN(CC)C(=O)/C=C/c1ccccc1OC | 78.2
O=C(/C=C/C=C/c1ccccc1O)N1CCCCC1 | 68.8
O=C(/C=C/C=C/c1ccc2c(c1)OCO2)N1CCCCC1 [PIPERINE] | 55.7
COc1cccc(/C=C/C=C/C(=O)N2CCCCC2)c1 | 58.1
CCNC(=O)/C=C/c1ccccc1OC | 68.5
O=C(/C=C/C=C/c1ccc(N2CCOCC2)cc1)N1CCCCC1 | 20.2
CC(C)(C)c1cc(O)ccc1O [E319] | 70.4
O=C(/C=C/C=C/c1ccc(N2CCCCC2)cc1)N1CCCCC1 | 18.9
CCN(CC)C(=O)/C=C/c1ccc2c(c1)OCO2 | 71.7
O=C(/C=C/c1cccs1)N1CCCCC1 | 50.4
CCN(CC)C(=O)/C=C/C=C/c1cccn1C | 67.8
O=C(/C=C/c1ccc(N2CCNCC2)cc1)N1CCCCC1 | 72.6
CCNC(=O)/C=C/c1ccc(N2CCNCC2)cc1 | 42.7
COc1ccccc1/C=C/C(=O)N1CCCCC1 | 81.3
CCN(CC)C(=O)/C=C/c1ccc(N2CCCC2)cc1 | 26.1

From ChEMBL document CHEMBL4765320, “Identification and optimization of piperine analogues as neuroprotective agents for the treatment of Parkinson's disease via the activation of Nrf2/keap1 pathway” (Eur J Med Chem, 2020)
